Literature values in patent US20220409628A1, “18-MC FOR TREATING OBESITY” (Mind Medicine, Inc., priority 2021, published 2022).

Columns and labels:
[1] = U.S. Pat. No. 6,780,871 to Glick, et al.
[2] = system: rats; conditions: acute administration, 10-40 mg/kg i.p.
[3] = system: rats; conditions: acute administration
[4] = system: rats; conditions: unlimited access to sucrose (30%), chronic treatment 20 mg/kg i.p.
[5] = in vivo
[6] = system: female rats; conditions: pretreatment 20 mg/kg i.p., ghrelin 1 μg lateral ventricle
[7] = system: extracellular dopamine in the nucleus accumbens; conditions: both 20 and 40 mg/kg, ghrelin 2 μg intraventral tegmental area
[8] = system: ghrelin-treated rats
[9] = system: male rats; conditions: repeated administration 20 mg/kg i.p.

For `COCC[C@H]1CC2CN3CCc4c([nH]c5ccccc45)[C@](C(=O)OC)(C2)[C@H]13` [18-MC, 18-methoxycoronaridine], the “self-administration of morphine, cocaine, methamphetamine, nicotine, and sucrose” value [1] is given as “reducing self-administration”, the “operant responding for sucrose” value [2] is given as “reduced operant responding for sucrose” and the “ad libitum ingestion of sucrose, saccharin, and saline” value ([3]; 10-40 mg/kg i.p.) is given as “decreased ad libitum ingestion”. For the same compound, the “consumption of water when palatable fluids were not available” value ([3]; highest dose) was “reduced consumption of water”, the consumption of sucrose [4] was “reduced consumption of sucrose” and the fat deposition [4] was “decreased fat deposition”. The food intake [4] was “not altering food intake”, the “sucrose-induced increases in body weight” value [4] was “prevented sucrose-induced increases in body weight” and the “conditioned taste aversion to sucrose” value [5] was “does not induce”. For the same compound, the “ghrelin-induced increases in sucrose (5%) intake” value [6] was “blocked ghrelin-induced increases”, the “ghrelin-induced increases in extracellular dopamine in the nucleus accumbens” value [7] was “prevented” and the deposition of fat [8] was “no effect”. The “serum levels of glucose, triglycerides, and cholesterol” value [8] was “no effect”, the weight gain ([9]; both sucrose-consuming and control animals) was “attenuated weight gain” and the “food or fluid intake” value [9] was “without altering food or fluid intake”.
